Data published in patent US20240059689A1, “PURINE DERIVATIVES AS ANTICANCER AGENTS” (Tango Therapeutics, Inc., priority 2021, published 2024).
Like-named read-outs stand apart in the source and are kept apart here.

Assays:
[1] = biological target: USP1-UAF1 (Homo sapiens, UniProt O94782); assay: Ubiquitin Rhodamine assay of USP1-UAF1 activity; format: biochemical
Method: Certain compounds of the disclosure were assessed for USP1-UAF1 activity in a Ubiquitin Rhodamine assay as described in Biology Example 1.

[2] = system: HCC1954; assay: Viability assay, BRCA1 WT cell line HCC1954; format: cell-based; settings: read-out: HCC1954 rel IC50
From the text: (§1) Table 1 also indicates IC50 values in a viability assay for a non-isogenic pair of BRCA1 mutant (column 5-MDA-MB-436) and BRCA1 WT (column 6—HCC1954) cell lines. These values indicate the effect of treatment with compound on cell survival.

[3] = system: MDA-MB-436; assay: Viability assay, BRCA1 mutant cell line MDA-MB-436; format: cell-based; settings: BRCA1 mutant MDA-MB-436, read-out: MDA-MB-436 rel IC50
From the text: as §1

[4] = Homo sapiens, HCC1954, viability
[5] = Homo sapiens, MDA-MB-436, viability

Chain of USP1-UAF1 (O94782 whole entry): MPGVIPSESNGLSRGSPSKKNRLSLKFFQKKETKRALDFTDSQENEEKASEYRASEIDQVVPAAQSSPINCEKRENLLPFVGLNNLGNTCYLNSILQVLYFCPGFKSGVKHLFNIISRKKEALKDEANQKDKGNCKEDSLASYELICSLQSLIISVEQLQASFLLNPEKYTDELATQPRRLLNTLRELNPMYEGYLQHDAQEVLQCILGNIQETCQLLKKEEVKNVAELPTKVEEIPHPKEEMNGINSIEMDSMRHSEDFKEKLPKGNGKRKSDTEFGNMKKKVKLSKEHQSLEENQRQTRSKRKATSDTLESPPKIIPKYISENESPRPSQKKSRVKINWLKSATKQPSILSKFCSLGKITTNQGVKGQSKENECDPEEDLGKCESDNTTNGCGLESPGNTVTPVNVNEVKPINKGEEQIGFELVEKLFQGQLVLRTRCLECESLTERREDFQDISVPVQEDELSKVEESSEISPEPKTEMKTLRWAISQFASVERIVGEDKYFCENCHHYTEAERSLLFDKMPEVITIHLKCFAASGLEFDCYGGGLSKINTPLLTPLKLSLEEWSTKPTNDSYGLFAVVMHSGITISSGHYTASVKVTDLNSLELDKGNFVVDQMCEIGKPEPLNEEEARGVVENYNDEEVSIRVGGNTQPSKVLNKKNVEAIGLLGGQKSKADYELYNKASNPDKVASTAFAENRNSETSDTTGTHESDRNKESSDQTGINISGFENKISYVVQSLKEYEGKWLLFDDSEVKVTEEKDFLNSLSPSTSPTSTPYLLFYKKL
Chain of USP1-UAF1 (Q8TAF3 whole entry partner): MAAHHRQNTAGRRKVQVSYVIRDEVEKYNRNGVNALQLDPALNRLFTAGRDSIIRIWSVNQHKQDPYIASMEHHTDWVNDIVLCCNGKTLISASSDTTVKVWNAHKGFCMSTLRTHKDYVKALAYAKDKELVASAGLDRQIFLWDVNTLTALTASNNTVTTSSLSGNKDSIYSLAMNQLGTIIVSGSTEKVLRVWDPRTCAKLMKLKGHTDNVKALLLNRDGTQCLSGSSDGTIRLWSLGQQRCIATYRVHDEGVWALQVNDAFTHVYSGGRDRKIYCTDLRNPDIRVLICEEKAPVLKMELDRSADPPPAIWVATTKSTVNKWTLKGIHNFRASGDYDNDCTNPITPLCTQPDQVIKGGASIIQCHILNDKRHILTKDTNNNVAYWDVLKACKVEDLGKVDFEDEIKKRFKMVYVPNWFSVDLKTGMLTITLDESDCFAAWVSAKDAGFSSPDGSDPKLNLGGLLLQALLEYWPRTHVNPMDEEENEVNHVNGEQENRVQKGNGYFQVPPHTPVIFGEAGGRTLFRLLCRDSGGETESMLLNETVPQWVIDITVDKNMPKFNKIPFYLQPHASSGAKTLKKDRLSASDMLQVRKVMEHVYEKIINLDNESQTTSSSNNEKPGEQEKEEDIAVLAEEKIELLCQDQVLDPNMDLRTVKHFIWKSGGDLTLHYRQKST

Structure (SMILES) | IC50 [1] [µM] | IC50 [2, 4] [µM] | IC50 [3, 5] [µM] | IC50 ([2]; viability) [µM] | IC50 ([3]; viability) [µM]
CC(C)c1ccccc1-c1ncc2c(n1)n(Cc1ccc(N3CCC(C(F)(F)F)C3)cc1)c(=N)n2C (single isomer, unassigned) [Example A-10d, 2-(2-isopropylphenyl)-7-methyl-9-(4-(3-(trifluoromethyl)pyrrolidin-1-yl)benzyl)-7,9-dihydro-8H-purin-8-imine] | 0.1 to 10 |  |  |  | 
CC(C)c1ccccc1-c1ncc2c(n1)n(Cc1ccc(N3CCC(C(F)(F)F)C3)cc1)c(=N)n2C (single isomer, unassigned) [Example A-10e, 2-(2-isopropylphenyl)-7-methyl-9-(4-(3-(trifluoromethyl)pyrrolidin-1-yl)benzyl)-7,9-dihydro-8H-purin-8-imine] | 0.1 to 10 |  |  |  | 
Cc1nc(-c2ccccc2)nc2c1n(C)c(=N)n2Cc1ccc(-c2nc(C(F)(F)F)cn2C)cc1 (single isomer, unassigned) [Example A-15b, 6,7-dimethyl-9-(4-(1-methyl-4-(trifluoromethyl)-1H-imidazol-2-yl)benzyl)-2-phenyl-7,9-dihydro-8H-purin-8-imine] | 0.1 to 10 | 0.25 to 10 | 0.25 to 10 |  | 
CC(C)c1ccccc1-c1ncc2c(n1)n(C(C)C1CCN(c3nc(Cl)cn3C)CC1)c(=N)n2C (single isomer, unassigned) [Example A-26d, 9-(1-(1-(4-chloro-1-methyl-1H-imidazol-2-yl)piperidin-4-yl)ethyl)-2-(2-isopropylphenyl)-7-methyl-7,9-dihydro-8H-purin-8-imine] | 0.1 to 10 |  |  | ≥ 10 | 0.25 to 10
CC(C)c1ccccc1-c1ncc2c(n1)n(Cc1ccc(-c3nccn3C)cc1)c(=N)n2C [Example A-2, 2-(2-isopropylphenyl)-7-methyl-9-(4-(1-methyl-1H-imidazol-2-yl)benzyl)-7H-purin-8(9H)-imine] | 0.1 to 10 | ≥ 10 | 0.25 to 10 |  | 
CC(C)c1ccccc1-c1ncc2c(n1)n(Cc1ccc(-c3ncc[nH]3)cc1)c(=N)n2C [Example A-4, 9-(4-(1H-imidazol-2-yl)benzyl)-2-(2-isopropylphenyl)-7-methyl-7H-purin-8(9H)-imine] | 0.1 to 10 |  |  |  | 
CC(C)c1ccccc1-c1ncc2c(n1)n(Cc1ccc(-c3cc(Cl)cn3C)cc1)c(=N)n2C [Example A-7, 9-(4-(4-chloro-1-methyl-1H-pyrrol-2-yl)benzyl)-2-(2-isopropylphenyl)-7-methyl-7,9-dihydro-8H-purin-8-imine] | 0.1 to 10 | 0.25 to 10 | 0.25 to 10 |  | 
COc1nc(-c2ccccc2C(C)C)nc2c1n(C)c(=N)n2Cc1ccc(-c2nc(C(F)(F)F)cn2C)cc1 [Example A-20, 2-(2-isopropylphenyl)-6-methoxy-7-methyl-9-(4-(1-methyl-4-(trifluoromethyl)-1H-imidazol-2-yl)benzyl)-7,9-dihydro-8H-purin-8-imine] | 0.1 to 10 | 0.25 to 10 | 0.25 to 10 |  | 
CC(C)c1ccccc1-c1nc(O)c2c(n1)n(Cc1ccc(-c3nc(C(F)(F)F)cn3C)cc1)c(=N)n2C [Example A-32, 8-imino-2-(2-isopropylphenyl)-7-methyl-9-(4-(1-methyl-4-(trifluoromethyl)-1H-imidazol-2-yl)benzyl)-8,9-dihydro-7H-purin-6-ol] | 0.1 to 10 | ≥ 10 | 0.25 to 10 |  | 
CNC(=O)c1nc(-c2ccccc2C(C)C)nc2c1n(C)c(=N)n2Cc1ccc(-c2nc(C(F)(F)F)cn2C)cc1 [Example A-39, 8-imino-2-(2-isopropylphenyl)-N, 7-dimethyl-9-(4-(1-methyl-4-(trifluoromethyl)-1H-imidazol-2-yl)benzyl)-8,9-dihydro-7H-purine-6-carboxamide] | 0.1 to 10 | ≥ 10 | 0.25 to 10 |  | 
CC(C)c1ccccc1-c1nc(C(=O)N(C)C)c2c(n1)n(Cc1ccc(-c3nc(C(F)(F)F)cn3C)cc1)c(=N)n2C [Example A-40, 8-imino-2-(2-isopropylphenyl)-N,N, 7-trimethyl-9-(4-(1-methyl-4-(trifluoromethyl)-1H-imidazol-2-yl)benzyl)-8,9-dihydro-7H-purine-6-carboxamide] | 0.1 to 10 | ≥ 10 | 0.25 to 10 |  | 
CC#Cc1nc(-c2ccccc2Cl)nc2c1n(C)c(=N)n2Cc1ccc(-c2nc(Cl)cn2C)cc1 [Example A-45, 9-(4-(4-chloro-1-methyl-1H-imidazol-2-yl)benzyl)-2-(2-chlorophenyl)-7-methyl-6-(prop-1-yn-1-yl)-7,9-dihydro-8H-purin-8-imine] | 0.1 to 10 | 0.25 to 10 | 0.25 to 10 |  | 
Cn1cc(Cl)nc1-c1ccc(Cn2c(=N)n(C)c3c(C#CC4CC4)nc(-c4ccccc4Cl)nc32)cc1 [Example A-46, 9-(4-(4-chloro-1-methyl-1H-imidazol-2-yl)benzyl)-2-(2-chlorophenyl)-6-(cyclopropylethynyl)-7-methyl-7,9-dihydro-8H-purin-8-imine] |  | 0.25 to 10 | 0.25 to 10 |  | 
Cc1cccc(Cl)c1-c1ncc2c(n1)n(Cc1ccc(-c3nc(C(F)(F)F)cn3C)cc1)c(=N)n2C [Example B-7, 2-(2-chloro-6-methylphenyl)-7-methyl-9-(4-(1-methyl-4-(trifluoromethyl)-1H-imidazol-2-yl)benzyl)-7,9-dihydro-8H-purin-8-imine] | 0.03 to 0.1 |  |  |  | 
CC(C)c1ccccc1-c1ncc2c(n1)n(CC1CCC(c3nc(C(F)(F)F)cn3C)CC1)c(=N)n2C (centres unmarked) [Example T-006] | 0.1 to 10 | 0.25 to 10 | 0.25 to 10 |  | 
COc1ncnc(C2CC2)c1-c1ncc2c(n1)n(Cc1ccc(-c3nc(C(F)(F)F)cn3C)s1)c(=N)n2C [Example T-007] | 0.1 to 10 | ≥ 10 | 0.25 to 10 |  | 
Cc1cnn(C)c1-c1ncc2c(n1)n(Cc1ccc(-c3nc(C(F)(F)F)cn3C)cc1)c(=N)n2C [Example T-012] | 0.1 to 10 | ≥ 10 | 0.25 to 10 |  | 
COc1ncnc(C2CC2)c1-c1ncc2c(n1)n(Cc1cc(-c3nc(C(F)(F)F)cn3C)cs1)c(=N)n2C [Example T-014] | 0.1 to 10 | ≥ 10 | 0.25 to 10 |  | 

Structure (SMILES) | IC50 [1] [µM] | IC50 [2, 4] [µM] | IC50 [3, 5] [µM] | IC50 ([2]; viability) [µM] | IC50 ([3]; viability) [µM]
Cn1cc(C(F)(F)F)nc1-c1ccc(Cn2c(=N)n(C)c3cnc(-c4c(C5CC5)cnn4C)nc32)cc1 [Example T-017] | 0.1 to 10 | ≥ 10 | 0.25 to 10 |  | 
Cn1cc(C(F)(F)F)nc1-c1ccc(Cn2c(=N)n(C)c3cnc(-c4c(C#N)cnn4C)nc32)cc1 [Example T-022] | 0.1 to 10 | ≥ 10 | 0.25 to 10 |  | 
CC(C)c1ccccc1-c1ncc2c(n1)n(Cc1ccc(N3C[C@@H](C(F)(F)F)C[C@H]3C)cc1)c(=N)n2C [Example T-024] | 0.1 to 10 |  |  |  | 
Cn1cc(C(F)(F)F)nc1-c1ccc(Cn2c(=N)n(C)c3cnc(-c4cccnc4C(F)(F)F)nc32)cc1 [Example T-025] | 0.1 to 10 | ≥ 10 | 0.25 to 10 |  | 
COc1ncnc(C2CC2)c1-c1ncc2c(n1)n(Cc1cc(C)c(-c3nc(C(F)(F)F)cn3C)cc1C)c(=N)n2C [Example T-026] | 0.1 to 10 | ≥ 10 | 0.25 to 10 |  | 
COc1nccc(C)c1-c1ncc2c(n1)n(Cc1ccc(-c3nc(C(F)(F)F)cn3C)cc1)c(=N)n2C [Example T-028] | 0.1 to 10 | ≥ 10 | 0.25 to 10 |  | 
Cn1cc(C(F)(F)F)nc1-c1ccc(Cn2c(=N)n(C)c3cnc(-c4cccnc4C4(C#N)CC4)nc32)cc1 [Example T-041] | 0.1 to 10 | ≥ 10 | 0.25 to 10 |  | 
Cn1cc(C(F)(F)F)nc1-c1ccc(Cn2c(=N)n(C)c3cnc(-c4cccnc4CC(F)(F)F)nc32)cc1 [Example T-042] | 0.1 to 10 | ≥ 10 | 0.25 to 10 |  | 
COc1ncccc1-c1ncc2c(n1)n(C1(c3ccc(-c4nc(C(F)(F)F)cn4C)cc3)CC1)c(=N)n2C [Example T-043] | 0.1 to 10 | ≥ 10 | 0.25 to 10 |  | 
Cn1cc(C(F)(F)F)nc1-c1cc(F)c(Cn2c(=N)n(C)c3cnc(-c4ccccc4C(F)(F)F)nc32)c(F)c1 [Example T-046] | 0.1 to 10 | ≥ 10 | 0.25 to 10 |  | 
COn1cc(C(F)(F)F)nc1-c1ccc(Cn2c(=N)n(C)c3cnc(-c4ccccc4C(F)(F)F)nc32)nc1 [Example T-048] | 0.1 to 10 | ≥ 10 | 0.25 to 10 |  | 
Cn1cc(C(F)(F)F)nc1-c1ccc(Cn2c(=N)n(C)c3cnc(-c4cccnc4C#N)nc32)cc1 [Example T-050] | 0.1 to 10 | ≥ 10 | ≥ 10 |  | 
COc1cc(C(F)(F)F)nn1-c1ccc(Cn2c(=N)n(C)c3cnc(-c4ccccc4C(F)(F)F)nc32)cn1 [Example T-055] | 0.1 to 10 | ≥ 10 | 0.25 to 10 |  | 
COc1ccn(-c2ccc(Cn3c(=N)n(C)c4cnc(-c5ccccc5C(C)C)nc43)cc2C)n1 [Example T-056] | 0.1 to 10 | 0.25 to 10 | 0.25 to 10 |  | 
COc1ncncc1-c1ncc2c(n1)n(Cc1ccc(-c3nc(C(F)(F)F)cn3C)cc1)c(=N)n2C [Example T-058] | 0.1 to 10 | ≥ 10 | ≥ 10 |  | 
Cc1noc(C)c1-c1ncc2c(n1)n(Cc1ccc(-c3nc(C(F)(F)F)cn3C)cc1)c(=N)n2C [Example T-062] | 0.1 to 10 | ≥ 10 | 0.25 to 10 |  | 
Cn1c(=N)n(Cc2ccc(-c3nc(C(F)(F)F)c[nH]3)c(F)c2)c2nc(-c3ccccc3C(F)(F)F)ncc21 [Example T-068] | 0.1 to 10 | 0.25 to 10 | 0.25 to 10 |  | 
CC(C)c1ccccc1-c1ncc2c(n1)n(Cc1ccc(-c3cccn3C)cc1)c(=N)n2C [Example T-088] | 0.1 to 10 |  |  |  | 
